Assay results published in patent US11807693B2 (priority 2014, dated 2023).
Starred links: 1 amine or outer side, 2 acyl side, 3 side chain; linkers in the order of their positions; H or OH if unused. Non-standard residues stand in square brackets, D forms with d. Residues, ends and D or L forms follow the SMILES beside them. *: point of attachment. Oic = O=C(O)[C@@H]1C[C@@H]2CCCC[C@@H]2N1; Phe(4-Cl) = N[C@@H](Cc1ccc(Cl)cc1)C(=O)O; γGlu = O=C(O)[C@H](CCC(=O)[*:2])N[*:1]; d(β3hF) = N[C@@H](CC(=O)O)Cc1ccccc1; Igl = N[C@H](C(=O)O)C1Cc2ccccc2C1; NMeR = CN[C@@H](CCCNC(=N)N)C(=O)O; Palmitoyl = CCCCCCCCCCCCCCCC(=O)*; Tic = O=C(O)[C@@H]1Cc2ccccc2CN1; Cha = N[C@@H](CC1CCCCC1)C(=O)O; αMeL = CC(C)C[C@](C)(N)C(=O)O; β3hP = O=C(O)C[C@@H]1CCCN1; Pip = O=C(O)[C@@H]1CCCCN1; Nle = CCCC[C@H](N)C(=O)O; Orn = NCCC[C@H](N)C(=O)O; Dap = NC[C@H](N)C(=O)O; AEEA = NCCOCCOCC(=O)O; Aib = CC(C)(N)C(=O)O; NPrGly = CCCNCC(=O)O

Assays:
rat APJ receptor = target: T1, rat APJ receptor (Rattus norvegicus, UniProt Q9JHG3); experiment: [35S] GTPγS assay, rat APJ receptor; type: biochemical; conditions: rat APJ receptor, read-out: EC50 Rat APJ Receptor
T1 construct: expressed in transfected cells
T1 sequence (Q9JHG3 1-377): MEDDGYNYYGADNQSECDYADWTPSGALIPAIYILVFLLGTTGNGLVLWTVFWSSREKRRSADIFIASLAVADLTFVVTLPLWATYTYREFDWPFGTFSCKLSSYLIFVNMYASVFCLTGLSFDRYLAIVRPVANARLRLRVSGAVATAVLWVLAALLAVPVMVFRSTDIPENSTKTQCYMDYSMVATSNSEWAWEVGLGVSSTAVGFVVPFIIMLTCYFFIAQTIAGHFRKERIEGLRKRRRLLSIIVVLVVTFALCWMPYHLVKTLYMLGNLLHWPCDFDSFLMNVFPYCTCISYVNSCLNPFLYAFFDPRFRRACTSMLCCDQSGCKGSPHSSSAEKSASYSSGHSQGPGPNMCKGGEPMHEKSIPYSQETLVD
Procedure: The membranes were incubated with modified peptides in the assay buffer. […] Bound [^35S] GTPγS was separated from free radiolabel by filtration. The filter bound radioactivity was determined by liquid scintillation counting.

human APJ receptor = target: T2, human APJ receptor (Homo sapiens, UniProt P35414); experiment: [35S] GTPγS assay, human APJ receptor; type: biochemical; conditions: human APJ receptor
T2 construct: expressed in transfected cells
T2 sequence (P35414 1-380): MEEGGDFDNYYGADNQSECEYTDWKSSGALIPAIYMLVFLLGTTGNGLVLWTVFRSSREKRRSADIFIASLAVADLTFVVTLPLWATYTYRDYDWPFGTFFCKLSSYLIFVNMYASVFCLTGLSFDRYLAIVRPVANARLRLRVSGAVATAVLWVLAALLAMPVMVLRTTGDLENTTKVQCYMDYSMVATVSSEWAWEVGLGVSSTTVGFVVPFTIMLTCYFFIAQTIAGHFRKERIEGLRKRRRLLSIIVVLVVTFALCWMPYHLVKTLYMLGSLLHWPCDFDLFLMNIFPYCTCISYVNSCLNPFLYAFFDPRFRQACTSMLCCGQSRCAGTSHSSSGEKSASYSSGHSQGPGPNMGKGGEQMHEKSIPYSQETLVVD

For `CCCCCCCCCCCCCCCC(=O)N[C@@H](CCC(=O)NCCOCCOCC(=O)NCCOCCOCC(=O)N[C@H](CCC(N)=O)C(=O)N[C@@H](CCCNC(=N)N)C(=O)N1CCC[C@H]1C(=O)N(C)[C@@H](CCCNC(=N)N)C(=O)N[C@@H](CC1CCCCC1)C(=O)N[C@@H](CO)C(=O)N[C@@H](Cc1c[nH]cn1)C(=O)N[C@@H](CCCCN)C(=O)NCC(=O)N1CCCC[C@H]1C(=O)N[C@@H](CCCC)C(=O)N1CCC[C@H]1C(=O)N1Cc2ccccc2C[C@H]1C(=O)O)C(=O)O` [compound 598] ({Palmitoyl-γGlu-AEEA-AEEA}-[dQ]RP[NMeR][Cha]SHKG[Pip][Nle]P[Tic]-OH), the EC50 (rat APJ receptor) was 2.85 nM and the EC50 (human APJ receptor) was 0.463 nM.
In the case of `CCCCCCCCCCCCCCCC(=O)N[C@@H](CCC(=O)NCCOCCOCC(=O)NCCOCCOCC(=O)N[C@H](CCC(N)=O)C(=O)N[C@@H](CCCNC(=N)N)C(=O)N1CCC[C@H]1C(=O)N(C)[C@@H](CCCNC(=N)N)C(=O)N[C@@H](CC1CCCCC1)C(=O)N[C@@H](CO)C(=O)N[C@@H](CN)C(=O)N[C@@H](CCCCN)C(=O)NCC(=O)N1[C@H](C(=O)N[C@@H](CCCC)C(=O)N2CCC[C@H]2CC(=O)N[C@@H](CC(=O)O)Cc2ccccc2)C[C@@H]2CCCC[C@@H]21)C(=O)O` [compound 616] ({Palmitoyl-γGlu-AEEA-AEEA}-[dQ]RP[NMeR][Cha]S[Dap]KG[Oic][Nle][β3hP][d(β3hF)]-OH), the EC50 (rat APJ receptor) is reported as 17.2 nM and the EC50 (human APJ receptor) is reported as 2.75 nM.
`CCCCCCCCCCCCCCCC(=O)N[C@@H](CCC(=O)NCCOCCOCC(=O)NCCOCCOCC(=O)N[C@H](CCC(N)=O)C(=O)N[C@@H](CCCNC(=N)N)C(=O)N1CCC[C@H]1C(=O)N(C)[C@@H](CCCNC(=N)N)C(=O)N[C@@H](CC1CCCCC1)C(=O)N[C@@H](CO)C(=O)N[C@@H](Cc1c[nH]cn1)C(=O)N[C@@H](CCCN)C(=O)NCC(=O)N1[C@H](C(=O)N[C@@H](CCCC)C(=O)N2CCC[C@H]2CC(=O)N[C@@H](CC(=O)O)Cc2ccccc2)C[C@@H]2CCCC[C@@H]21)C(=O)O` [compound 618] ({Palmitoyl-γGlu-AEEA-AEEA}-[dQ]RP[NMeR][Cha]SH[Orn]G[Oic][Nle][β3hP][d(β3hF)]-OH) gave an EC50 (rat APJ receptor) of 11.1 nM and an EC50 (human APJ receptor) of 2.47 nM.
With `CCCCCCCCCCCCCCCC(=O)N[C@@H](CCC(=O)NCCOCCOCC(=O)NCCOCCOCC(=O)N[C@H](CCC(N)=O)C(=O)N[C@@H](CCCNC(=N)N)C(=O)N1CCC[C@H]1C(=O)N(C)[C@@H](CCCNC(=N)N)C(=O)N[C@@H](CC1CCCCC1)C(=O)N[C@@H](CO)C(=O)N[C@@H](Cc1c[nH]cn1)C(=O)N[C@H](C(=O)NCC(=O)N1[C@H](C(=O)N[C@@H](CCCC)C(=O)N2CCC[C@H]2CC(=O)N[C@@H](CC(=O)O)Cc2ccccc2)C[C@@H]2CCCC[C@@H]21)C1Cc2ccccc2C1)C(=O)O` [compound 625] ({Palmitoyl-γGlu-AEEA-AEEA}-[dQ]RP[NMeR][Cha]SH[Igl]G[Oic][Nle][β3hP][d(β3hF)]-OH) the EC50 (rat APJ receptor) was 20.1 nM and the EC50 (human APJ receptor) was 11.1 nM.
In the case of `CCCCCCCCCCCCCCCC(=O)N[C@@H](CCC(=O)NCCOCCOCC(=O)NCCOCCOCC(=O)N[C@H](CCC(N)=O)C(=O)N[C@@H](CCCNC(=N)N)C(=O)N1CCC[C@H]1C(=O)N(C)[C@@H](CCCNC(=N)N)C(=O)N[C@@](C)(CC(C)C)C(=O)N[C@@H](CO)C(=O)N[C@@H](CN)C(=O)N[C@@H](CCCCN)C(=O)NCC(=O)N1[C@H](C(=O)N[C@@H](CCCC)C(=O)N2CCC[C@H]2CC(=O)N[C@@H](Cc2ccc(Cl)cc2)C(=O)O)C[C@@H]2CCCC[C@@H]21)C(=O)O` [compound 630] ({Palmitoyl-γGlu-AEEA-AEEA}-[dQ]RP[NMeR][αMeL]S[Dap]KG[Oic][Nle][β3hP][Phe(4-Cl)]-OH), the EC50 (rat APJ receptor) is reported as 0.486 nM and the EC50 (human APJ receptor) is reported as 0.203 nM.
`CCCCCCCCCCCCCCCC(=O)N[C@@H](CCC(=O)NCCOCCOCC(=O)NCCOCCOCC(=O)N[C@H](CCC(N)=O)C(=O)N[C@@H](CCCNC(=N)N)C(=O)N1CCC[C@H]1C(=O)N(C)[C@@H](CCCNC(=N)N)C(=O)N[C@@H](CC1CCCCC1)C(=O)N(CCC)CC(=O)N[C@@H](Cc1c[nH]cn1)C(=O)N[C@@H](CCCCN)C(=O)NCC(=O)N1CCCC[C@H]1C(=O)N[C@@H](CCCC)C(=O)NC(C)(C)C(=O)N[C@@H](Cc1ccc(Cl)cc1)C(=O)O)C(=O)O` [compound 643] ({Palmitoyl-γGlu-AEEA-AEEA}-[dQ]RP[NMeR][Cha][NPrGly]HKG[Pip][Nle][Aib][Phe(4-Cl)]-OH) showed an EC50 (rat APJ receptor) of 3.79 nM and an EC50 (human APJ receptor) of 0.463 nM.
